Assay results as given in patent US9926319B2, “Pyridyl piperidines” (MERCK PATENT GMBH, priority 2014, dated 2018).

Legend:
Wnt pathway = assay: Cellular assay for Wnt pathway activity (luciferase reporter cell based assay); details: 24 h, HEK293 luciferase reporter cell line (ER-DSH, TCF dependent promoter), induced with estrogen (1 μM), read-out: 7df3 IC50
[1] = CLint (intrinsic clearance) assay, microsomal incubation; format: in vitro ADME, Human; details: NADPH, 37° C., up to 30 min; for microsomal CLint at 0.8 μM: human, liver microsomes, pH 7.4, human liver microsomes 0.5 mg/mL protein
Procedure: 2. CLint (Intrinsic Clearance) Assay
A Tecan Genesis workstation (RWS ASY 150/8) was used to perform the microsomal incubations. Analysis was carried out using a Waters ACQUITY UPLC system coupled to an ABSciex API3000 mass spectrometer. Data analysis was performed using Assay Explorer (Symyx).
0.1 M potassium phosphate buffer pH 7.4 containing 1 mM MgCl2
15 mM NADPH in phosphate buffer
5.0 mg protein/mL liver microsomes in phosphate buffer
Each experiment consists of 12 test and 2 reference compounds. The reference compounds are incubated as a cocktail.
Dilution of test compounds was done in 2 steps from a 10 mM DMSO stock solution. First 4 μL stock solution was added to 196 μL of 20% DMSO in potassium phosphate buffer pH 7.4. In a second step 10 μL of the first dilution were added to […] potassium phosphate buffer and 100 μL internal standard solution to a final concentration of 0.8 μM. 100 μL of the final compound dilution were aliquoted into a 96 deep well plate. 12.5 μL liver microsomes were added to each well (0.5 mg/mL final protein concentration) and the samples preincubated for 5 min at 37° C. and 800 rpm agitation.
After the preincubation, 250 μL cold acetonitrile were added to the 0 min samples to prevent a reaction. Following this, 12.5 μL NADPH solution were added to all wells to start the incubation, with the exception of the 0 min and 30 min controls without cofactor, where the NADPH was substituted for phosphate buffer.
The incubations were stopped after 5, 10, 20 and 30 min by adding 250 μL cold acetonitrile to the individual wells.
The quenched samples were then centrifuged at 4000 g for 1 h at 4° C. 100 μL of the supernatant were transferred into 96 well plates for analysis.
The metabolic stability of each compound was determined by measurement of the change in LC-MS/MS peak area over time. Assay Explorer software was used to automatically calculate the slope k of the decline. The intrinsic clearance (CLint) of each compound was then calculated according to the formula: CLint(μL/min/mg protein)=k1000/protein concentration.
CLint is shown for each compound in Table 3 below.

| SMILES | IC50 (Wnt pathway) [nM] | microsomal CLint at 0.8 μM [1] [µL/min/mg] | Human Clint ([1]; human liver microsomes 0.5 mg/mL protein) [µL/min/mg] |
| --- | --- | --- | --- |
| CC(C)n1cc(-c2ccc(-c3cncc(Cl)c3N3CCC4(CCNC4=O)CC3)cc2)cn1 [Example 6, 8-{3-Chloro-5-[4-(1-isopropyl-1H-pyrazol-4-yl)-phenyl]-pyridin-4-yl}-2,8-diaza-spiro[4.5]decan-1-one] | 6.2 | 90 |  |
| O=C1NCC2(CCN(c3c(Cl)cncc3-c3ccc4oc(=O)[nH]c4c3)CC2)O1 [Example 8, 8-[3-Chloro-5-(2-oxo-2,3-dihydro-benzooxazol-5-yl)-pyridin-4-yl]-1-oxa-3,8-diaza-spiro[4.5]decan-2-one] | 9.7 | 16 |  |
| Cn1ncc2ccc(-c3cncc(Cl)c3N3CCC4(CC3)CNC(=O)O4)cc21 [Example 10, 8-[3-Chloro-5-(1-methyl-1H-indazol-6-yl)-pyridin-4-yl]-1-oxa-3,8-diaza-spiro[4.5]decan-2-one] | 28 | 13 |  |
| O=C1CCc2ccc(-c3cncc(Cl)c3N3CCC4(CCNC4=O)CC3)cc2N1 [Example 12, 7-[5-Chloro-4-(1-oxo-2,8-diaza-spiro[4.5]dec-8-yl)-pyridin-3-yl]-3,4-dihydro-1H-quinolin-2-one] | 43 | 27 |  |
| Nc1n[nH]c2cc(-c3cncc(Cl)c3N3CCC4(CC3)CC(=O)NC4=O)ccc12 [Example 14, 8-[3-(3-Amino-1H-indazol-6-yl)-5-chloro-pyridin-4-yl]-2,8-diaza-spiro[4.5]decane-1,3-dione] | 18 | < 10 |  |
| CC1=NC(=O)C2(CCN(c3c(Cl)cncc3-c3ccc4c(cnn4C)c3)CC2)N1 [Example 19, 8-[3-Chloro-5-(1-methyl-1H-indazol-5-yl)-pyridin-4-yl]-2-methyl-1,3,8-triaza-spiro[4.5]dec-2-en-4-one] | 21 | < 10 |  |
| CN1c2ccc(-c3cncc(Cl)c3N3CCC4(CC3)NC(=O)CNC4=O)cc2CS1(=O)=O [Example 21, 9-[3-Chloro-5-(1-methyl-2,2-dioxo-2,3-dihydro-1H-2l6-benzo[c]isothiazol-5-yl)-pyridin-4-yl]-1,4,9-triaza-spiro[5.5]undecane-2,5-dione] | 31 | < 10 |  |
| CNC(=O)c1ccc(-c2cncc(Cl)c2N2CCC3(CCNC3=O)CC2)cc1 [Example 22, 4-[5-Chloro-4-(1-oxo-2,8-diaza-spiro[4.5]dec-8-yl)-pyridin-3-yl]-N-methyl-benzamide] | 46 | 27 |  |
| Cn1nc(N)c2ccc(-c3cncc(Cl)c3N3CCC4(CC3)CC(=O)NC4=O)cc21 [Example 28, 8-[3-(3-Amino-1-methyl-1H-indazol-6-yl)-5-chloro-pyridin-4-yl]-2,8-diaza-spiro[4.5]decane-1,3-dione] | 1.3 | 60 |  |
| CN1c2ccc(-c3cncc(Cl)c3N3CCC4(CC3)CC(=O)NN4)cc2CS1(=O)=O [Example 30, 8-[3-Chloro-5-(1-methyl-2,2-dioxo-2,3-dihydro-1H-2l6-benzo[c]isothiazol-5-yl)-pyridin-4-yl]-1,2,8-triaza-spiro[4.5]decan-3-one] | 13 | 27 |  |
| CN1c2ccc(-c3cncc(Cl)c3N3CCC(F)(C(N)=O)CC3)cc2CS1(=O)=O [Example 31, 5′-Chloro-4-fluoro-3′-(1-methyl-2,2-dioxo-2,3-dihydro-1H-2l6-benzo[c]isothiazol-5-yl)-3,4,5,6-tetrahydro-2H-[1,4′]bipyridinyl-4-carboxylic acid amide] | 2.8 | 51 |  |
| CN1c2ccc(-c3cncc(Cl)c3N3CCC(C#N)(CCO)CC3)cc2CS1(=O)=O [Example 33, 5′-Chloro-4-(2-hydroxy-ethyl)-3′-(1-methyl-2,2-dioxo-2,3-dihydro-1H-2l6-benzo[c]isothiazol-5-yl)-3,4,5,6-tetrahydro-2H-[1,4′]bipyridinyl-4-carbonitrile] | 0.6 | 88 |  |
| CC(C)n1cc(-c2ccc(-c3cncc(Cl)c3N3CCC4(CC3)CNC(=O)O4)cc2)cn1 [Example 36, 8-{3-Chloro-5-[4-(1-isopropyl-1H-pyrazol-4-yl)-phenyl]-pyridin-4-yl}-1-oxa-3,8-diaza-spiro[4.5]decan-2-one] | 22 | 40 |  |
| CC(C)n1cc(-c2ccc(-c3cncc(C(F)(F)F)c3N3CCC4(CC3)CNC(=O)O4)cc2)cn1 [Example 38, 8-{3-[4-(1-Isopropyl-1H-pyrazol-4-yl)-phenyl]-5-trifluoromethyl-pyridin-4-yl}-1-oxa-3,8-diaza-spiro[4.5]decan-2-one] | 33 | 16 |  |
| CS(=O)(=O)CCn1cc(-c2ccc(-c3cncc(Cl)c3N3CCC4(CC3)CNC(=O)O4)cc2)cn1 [Example 39, 8-(3-Chloro-5-{4-[1-(2-methanesulfonyl-ethyl)-1H-pyrazol-4-yl]-phenyl}-pyridin-4-yl)-1-oxa-3,8-diaza-spiro[4.5]decan-2-one] | 14 | 12 |  |

Continued by falling IC50 (Wnt pathway), values first:

| IC50 (Wnt pathway) [nM] | microsomal CLint at 0.8 μM [1] [µL/min/mg] | Human Clint ([1]; human liver microsomes 0.5 mg/mL protein) [µL/min/mg] | SMILES |
| --- | --- | --- | --- |
| 39 | 49 |  | COC(=O)Nc1n[nH]c2cc(-c3cncc(Cl)c3N3CCC4(CCNC4=O)CC3)ccc12 [Example 23, {6-[5-Chloro-4-(1-oxo-2,8-diaza-spiro[4.5]dec-8-yl)-pyridin-3-yl]-1H-indazol-3-yl}-carbamic acid methyl ester] |
| 33 | < 10 |  | CN1C(=O)Cc2cc(-c3cncc(Cl)c3N3CCC4(CC3)CNC(=O)O4)ccc21 [Example 11, 8-[3-Chloro-5-(1-methyl-2-oxo-2,3-dihydro-1H-indol-5-yl)-pyridin-4-yl]-1-oxa-3,8-diaza-spiro[4.5]decan-2-one] |
| 22 | 24 |  | CC1=NC(=O)C2(CCN(c3c(Cl)cncc3-c3ccc(-c4cnn(C)c4)cc3)CC2)N1 [Example 20, 8-{3-Chloro-5-[4-(1-methyl-1H-pyrazol-4-yl)-phenyl]-pyridin-4-yl}-2-methyl-1,3,8-triaza-spiro[4.5]dec-2-en-4-one] |
| 20 | 30 |  | CC(C)(C)N1Cc2cc(-c3cncc(Cl)c3N3CCC4(CCNC4=O)CC3)ccc2S1(=O)=O [Example 26, 8-[3-(2-tert-Butyl-1,1-dioxo-2,3-dihydro-1H-1l6-benzo[d]isothiazol-5-yl)-5-chloro-pyridin-4-yl]-2,8-diaza-spiro[4.5]decan-1-one] |
| 17 | < 10 |  | O=C1NCC2(CCN(c3c(Cl)cncc3-c3ccc(-c4cnn(CCO)c4)cc3)CC2)O1 [Example 15, 8-(3-Chloro-5-{4-[1-(2-hydroxy-ethyl)-1H-pyrazol-4-yl]-phenyl}-pyridin-4-yl)-1-oxa-3,8-diaza-spiro[4.5]decan-2-one] |
| 16 | 12 |  | O=C1NCCC12CCN(c1c(Cl)cncc1-c1ccc3c(c1)C(O)CS3(=O)=O)CC2 (stereo not shown) [Example 29, 8-[3-Chloro-5-(3-hydroxy-1,1-dioxo-2,3-dihydro-1H-1l6-benzo[b]thiophen-5-yl)-pyridin-4-yl]-2,8-diaza-spiro[4.5]decan-1-one] |
| 11 |  | 11 | Cn1cc(-c2ccc(-c3cncc(Cl)c3N3CCC4(CC3)NC(=O)CNC4=O)cc2)cn1 [Example 17, 9-{3-Chloro-5-[4-(1-methyl-1H-pyrazol-4-yl)-phenyl]-pyridin-4-yl}-1,4,9-triaza-spiro[5.5]undecane-2,5-dione] |
| 7 | 23 |  | Cn1cc(-c2ccc(-c3cncc(Cl)c3N3CCC(F)(C(N)=O)CC3)cc2)cn1 [Example 25, 5′-Chloro-4-fluoro-3′-[4-(1-methyl-1H-pyrazol-4-yl)-phenyl]-3,4,5,6-tetrahydro-2H-[1,4′]bipyridinyl-4-carboxylic acid amide] |
| 4.7 | 70 |  | O=C1NCCC12CCN(c1c(Cl)cncc1-c1ccc3c(c1)CS(=O)(=O)C3)CC2 [Example 32, 8-[3-Chloro-5-(2,2-dioxo-2,3-dihydro-1H-2l6-benzo[c]thiophen-5-yl)-pyridin-4-yl]-2,8-diaza-spiro[4.5]decan-1-one] |
| 3.9 | 61 |  | N#CCCn1cc(-c2ccc(-c3cncc(Cl)c3N3CCC4(CC3)CNC(=O)O4)cc2)cn1 [Example 40, 3-(4-{4-[5-Chloro-4-(2-oxo-1-oxa-3,8-diaza-spiro[4.5]dec-8-yl)-pyridin-3-yl]-phenyl}-pyrazol-1-yl)-propionitrile] |
| 2 | 58 |  | Cn1nc(N)c2ccc(-c3cncc(Cl)c3N3CCC4(CC3)CNC(=O)O4)cc21 [Example 27, 8-[3-(3-Amino-1-methyl-1H-indazol-6-yl)-5-chloro-pyridin-4-yl]-1-oxa-3,8-diaza-spiro[4.5]decan-2-one] |
